Measurements reported in ChEMBL document CHEMBL1681664, “Specific biotinylation of IMP dehydrogenase” (Bioorg Med Chem Lett, 2011).
The source made the active and inactive calls. The calls are words filed in the database; no cut-off is given here.

Assays:
[1] = target: Inosine-5'-monophosphate dehydrogenase 2 (Homo sapiens) (UniProt P12268); assay: Inhibition of human IMPDH2 at 100 to 500 uM at pH 8
Escherichia coli [2] = assay: Ratio of Kinact to Ki for Escherichia coli IMPDH at 25 degC
[3] = target: Inosine-5'-monophosphate dehydrogenase 2 (Homo sapiens) (UniProt P12268); assay: Ratio of Kinact to Ki for human IMPDH2 at 37 degC
Escherichia coli [4] = assay: Inhibition of recombinant Escherichia coli IMPDH by SDS-PAGE
Escherichia coli [5] = assay: Inhibition of recombinant Escherichia coli IMPDH with active site Cys replaced with Ala mutant by SDS-PAGE
[6] = target: Inosine-5'-monophosphate dehydrogenase 2 (Homo sapiens) (UniProt P12268); assay: Inhibition of human IMPDH2 at 200 uM by SDS-PAGE
Escherichia coli [7] = assay: Inhibition of IMPDH in wild type Escherichia coli MG1655 cell lysate by SDS-PAGE
Escherichia coli [8] = assay: Inhibition of GMPR in wild type Escherichia coli MG1655 cell lysate by SDS-PAGE
[9] = target: Inosine-5'-monophosphate dehydrogenase 2 (Homo sapiens) (UniProt P12268); assay: Ratio of Kinact to Ki for human IMPDH2 at 25 degC
[10] = target: Inosine-5'-monophosphate dehydrogenase 2 (Homo sapiens) (UniProt P12268); assay: Inhibition of human IMPDH2 at 200 uM by SDS-PAGE in presence of 6 mM dithiothreitol

Sequence of Inosine-5'-monophosphate dehydrogenase 2 (Homo sapiens) (P12268 2-514 limits assumed): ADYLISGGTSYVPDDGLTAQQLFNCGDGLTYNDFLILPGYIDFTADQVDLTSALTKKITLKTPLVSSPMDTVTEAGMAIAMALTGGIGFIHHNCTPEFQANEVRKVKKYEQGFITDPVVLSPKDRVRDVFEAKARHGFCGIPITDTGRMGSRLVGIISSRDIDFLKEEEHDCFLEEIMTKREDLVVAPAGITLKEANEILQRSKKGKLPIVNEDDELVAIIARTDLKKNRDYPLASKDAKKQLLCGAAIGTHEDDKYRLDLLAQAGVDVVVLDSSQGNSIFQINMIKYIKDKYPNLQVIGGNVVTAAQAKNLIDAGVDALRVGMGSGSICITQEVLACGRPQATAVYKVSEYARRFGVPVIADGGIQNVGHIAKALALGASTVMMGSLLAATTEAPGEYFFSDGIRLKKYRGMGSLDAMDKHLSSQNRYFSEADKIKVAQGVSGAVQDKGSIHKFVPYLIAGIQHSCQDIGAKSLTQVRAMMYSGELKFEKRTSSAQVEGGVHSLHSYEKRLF

inhibition [1]	Ratio (Escherichia coli [2])	Ratio [3]	inhibition (Escherichia coli [4])	inhibition (Escherichia coli [5])	inhibition [6]	inhibition (Escherichia coli [7])	inhibition (Escherichia coli [8])	Ratio [9]	inhibition [10]	SMILES
Active	130 M⁻¹ s⁻¹	1.4 M⁻¹ s⁻¹	Active	inactive	Active	Active	Active			O=C(CCCC[C@@H]1SC[C@@H]2NC(=O)N[C@@H]21)NCCCO[C@@H]1[C@H](O)[C@@H](COP(=O)(O)O)O[C@H]1n1cnc2c(Cl)ncnc21
	120 M⁻¹ s⁻¹							0.9 M⁻¹ s⁻¹	inactive	O=P(O)(O)OC[C@H]1O[C@@H](n2cnc3c(Cl)ncnc32)[C@H](O)[C@@H]1O
